The values below come from PMC10926604, “Discovery of a novel small molecule as CD47/SIRPα and PD-1/PD-L1 dual inhibitor for cancer immunotherapy” (Cell Communication and Signaling : CCS, 2024).

One series has as its target T1, human SIRPα (hSIRPα) (Homo sapiens, UniProt P78324).
T1 construct: SIPRα-IgV-His (human: SIA-H5225, mouse: SIA-M52H4, ACRO Biosystems); His; purchased ACRO Biosystems SIA-H5225
In words: MST binding assay, human SIRPα. As to conditions: SIRPα-IgV-His, read-out: dissociation constant (KD) for human SIRPα. The protocol: (§1) SIPRα-IgV-His (human: SIA-H5225, mouse: SIA-M52H4, ACRO Biosystems) and PD-L1-IgV-His (human: 10,084-H08H, mouse: 50,010-M08H, Sino Biological) proteins were labeled with Red-NHS647 dye (NT-MO-L001, NanoTemper) for subsequent experiments. SMC18 (C385-0664, ChemDiv) was serially diluted using PBST (from 0.0191 μM to 200 μM) and mixed with the labeled proteins. The samples were then aspirated using standard capillaries and assayed by MST instrument (Monolith NT.115, NanoTemper), and the results were analyzed using the analytical software Monolith NT.115 system to calculate the dissociation constant (KD) values.

Another series addresses T2, murine SIRPα (mSIRPα) (Mus musculus, UniProt P97797).
T2 construct: SIPRα-IgV-His (human: SIA-H5225, mouse: SIA-M52H4, ACRO Biosystems); His; purchased ACRO Biosystems SIA-M52H4
In words: MST binding assay, murine SIRPα. The conditions noted are these: SIRPα-IgV-His, read-out: dissociation constant (KD) for murine SIRPα. On the procedure: as §1

A further series has as its target T3, human PD-1/PD-L1 (Homo sapiens, UniProt Q9NZQ7).
T3 construct: purchased Sino Biological 10,084-H02H; host or cells: CHO-K1-hPD-1 cells carry the partner (lentiviral transfection)
In words: Cell-based blocking assay, human PD-1/PD-L1. The conditions noted are these: CHO-K1-hPD-1 cells, PD-L1-Fc, flow cytometry; read-out: IC50 for blocking human PD-1/PD-L1 interaction. The protocol:
The CHO-K1 cell line with stable expression of CD47 and PD-1 was constructed previously by our group. SMC18 was serially diluted using PBS 7.2 (containing 1% DMSO) and incubated with 100 ng of SIRPα-Fc protein (human: SIA-H5251, mouse: SIA-M5258, ACRO Biosystems) and 50 ng of PD-L1-Fc protein (human: 10,084-H02H, mouse: 50,010-M02H, Sino Biological) on ice for 30 min. The mixture was then added to the corresponding CHO-K1-CD47 or CHO-K1-PD-1 cells and further incubated on ice for 30 min. Afterward, PE-conjugated anti-human IgG (Fc) antibody (A18272, eBioscience) was added. The mean fluorescence intensity (MFI) of the cells was detected using flow cytometry (BD FACSCalibur) and the blocking efficiency was calculated.

For a further series, the target named is hLAG-3/hFGL-1 (Homo sapiens, UniProt P18627+Q08830). Description: Blockade of other immune checkpoint pathways, LAG-3/FGL-1. The class given is cell-based. The conditions noted are these: Fig. S2.
Another series deals with hTIM-3/hGal-9 (Homo sapiens, UniProt O00182+Q8TDQ0). Description: Blockade of other immune checkpoint pathways, TIM-3/Gal-9. The series is classed as cell-based. As to conditions: Fig. S2.
For a further series, the system named is B16-OVA cells. Description: MTT assay, B16-OVA cells. The series is classed as cell-based, mouse. The conditions noted are these: 100 µM; 24 h, 48 h, 72 h. On the procedure:
MC38 and B16-OVA cells were seeded into 96-well plates at a density of 3,000 cells per well, respectively and allowed to adhere overnight. SMC18 was added to the cells and incubated for 24 h, 48 h and 72 h, respectively. Cell viability was measured by adding MTT (3-(4, 5-dimethyl-2-thiazolyl)-2,5-diphenyl-2-H-tetrazolium bromide, 298–93-1, Sigma) solution and incubating for 4 h. The cells were then lysed by shaking with DMSO. The absorbance values at 490 nm were measured using a multi-mode microplate reader (Molecular Devices, SpectraMax iD5).
Fig S3. The Effect of SMC18 on Tumor Cell Proliferation in vitro. MC38 cells (3000 cells/well) and B16-OVA cells (3000 cells/well) were seeded in flat-bottomed 96-well plates and allowed to adhere overnight. Subsequently, the cells were starved for 8 hours in serum-free medium. SMC18 was diluted in complete culture medium and added to the wells, following which the cells were incubated for 24 h, 48 h, and 72 h. After the designated incubation periods, 20 μL of MTT solution was added to each well. Four hours later, the supernatant was aspirated, and 150 μL of DMSO was added to each well to dissolve the MTT formazan product. The plates were then shaken for 10 minutes, and absorbance was measured at 490 nm using a microplate reader.

The test system of another series is PD-1. In words: Tyrosine phosphorylation assay of PD-1, Jurkat/CHO-K1-hPD-L1 co-culture. The class given is cell-based, human. As to conditions: 50 μM, stimulated Jurkat with CHO-K1-hPD-L1 cells, 30 min, Western blotting. The protocol: Jurkat cells were stimulated with of PMA (25 ng/mL) and PHA (1 μg/mL) for 24 h. Stimulated Jurkat cells (2 × 10^6 cells/well) were co-cultured with CHO-K1-PD-L1 cells (1 × 10^7 cells/well). The co-cultures were treated with PBS, SMC18 (50 μM), or anti-human PD-1 (a17188b, Biolegend) and incubated at 37℃ for 30 min. After PBS washing, the cells were collected by centrifugation and lysed. Finally, cell lysates were collected for immunoprecipitation and Western blotting.
In brief, the protein samples were separated by SDS-PAGE using a 4% stacking gel and an 8 ~ 10% main gel and transferred to a polyvinylidene difluoride (PVDF) membrane. The membrane was blocked with 5% milk at room temperature for 1–2 h and then incubated with anti-SIRPα (dilution 1:1000, AB8120, Abcam), anti-PD-1 (dilution 1:200, ab52587, Abcam) or anti-Phosphotyrosine (dilution 1:1000, 05–321, Millipore) dissolved in primary antibody dilution buffer overnight at 4 °C. Then the membrane was washed and incubated with appropriate HRP-coupled goat anti-rabbit IgG (D110058, Sangon Biotech) and HRP-coupled goat anti-mouse IgG (D110087, Sangon Biotech) for 1–2 h at room temperature. Finally, the membranes were exposed using an enhanced chemiluminescence (ECL) detection kit (P1030, Applygen). Results were analyzed by ImageJ software (NIH, Bethesda, MD, United States).
A general note: Immunoblotting shows a protein as a band on a membrane.

The next series deals with MC38 tumor-bearing mice. In words: MC38 tumor model. The class given is in vivo, mouse. As to conditions: 2 or 6 mg/kg i.p. daily for 14 days. The protocol:
The animal studies were conducted in accordance with the guidelines and approved by the Ethics Committee of Zhengzhou University (ZZUIRB 2021–36). Six weeks old female mice were purchased from the Vital River Laboratory (Beijing, China). Mouse MC38 colorectal cancer cells (1 × 10^6) were harvested and subcutaneously (s.c.) injected into the right abdomen of the mice. When the tumor size reached 40 ~ 80 mm^3, the mice were randomly assigned into three groups (n = 5 per group) to receive intraperitoneal injections daily of SMC18 (2 mg/kg), SMC18 (6 mg/kg) or normal saline for 14 days. At day 23, mice were euthanized for ex vivo analysis.

Structures are written as SMILES. Entries after “also recorded” stand apart in the source; their conditions may differ.

Chain of hTIM-3/hGal-9 (Q8TDQ0 22-301): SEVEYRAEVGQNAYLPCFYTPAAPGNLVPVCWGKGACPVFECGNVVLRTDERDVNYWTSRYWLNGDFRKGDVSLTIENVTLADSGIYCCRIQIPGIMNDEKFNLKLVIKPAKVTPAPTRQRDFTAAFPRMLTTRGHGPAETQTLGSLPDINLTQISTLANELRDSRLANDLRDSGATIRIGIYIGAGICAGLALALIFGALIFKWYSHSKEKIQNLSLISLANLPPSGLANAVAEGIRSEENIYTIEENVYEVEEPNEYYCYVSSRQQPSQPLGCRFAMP
Chain of hTIM-3/hGal-9 (O00182 whole entry): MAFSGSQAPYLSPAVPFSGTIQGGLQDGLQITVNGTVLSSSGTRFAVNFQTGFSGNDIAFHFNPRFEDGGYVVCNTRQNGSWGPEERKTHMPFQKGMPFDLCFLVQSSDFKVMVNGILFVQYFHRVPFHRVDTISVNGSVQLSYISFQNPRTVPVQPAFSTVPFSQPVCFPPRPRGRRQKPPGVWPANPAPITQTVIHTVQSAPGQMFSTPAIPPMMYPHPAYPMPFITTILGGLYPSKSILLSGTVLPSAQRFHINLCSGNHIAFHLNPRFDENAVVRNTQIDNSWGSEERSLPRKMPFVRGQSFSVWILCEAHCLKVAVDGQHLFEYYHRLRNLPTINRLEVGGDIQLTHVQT
Chain of hLAG-3/hFGL-1 (P18627 23-525): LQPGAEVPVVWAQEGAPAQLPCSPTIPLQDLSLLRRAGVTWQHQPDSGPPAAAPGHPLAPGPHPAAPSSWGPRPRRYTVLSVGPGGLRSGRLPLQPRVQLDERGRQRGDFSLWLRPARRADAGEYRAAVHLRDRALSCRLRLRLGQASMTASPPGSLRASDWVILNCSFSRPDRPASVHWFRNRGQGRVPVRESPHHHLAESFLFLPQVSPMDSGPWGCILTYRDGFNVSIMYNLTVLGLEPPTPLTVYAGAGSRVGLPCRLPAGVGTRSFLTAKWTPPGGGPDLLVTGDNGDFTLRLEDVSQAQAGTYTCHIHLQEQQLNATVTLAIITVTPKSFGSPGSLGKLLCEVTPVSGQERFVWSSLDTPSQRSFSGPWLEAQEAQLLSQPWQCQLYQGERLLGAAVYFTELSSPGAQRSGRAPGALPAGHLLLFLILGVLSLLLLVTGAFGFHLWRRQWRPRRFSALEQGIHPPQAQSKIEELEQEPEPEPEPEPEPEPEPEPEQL
Chain of hLAG-3/hFGL-1 (Q08830 23-312): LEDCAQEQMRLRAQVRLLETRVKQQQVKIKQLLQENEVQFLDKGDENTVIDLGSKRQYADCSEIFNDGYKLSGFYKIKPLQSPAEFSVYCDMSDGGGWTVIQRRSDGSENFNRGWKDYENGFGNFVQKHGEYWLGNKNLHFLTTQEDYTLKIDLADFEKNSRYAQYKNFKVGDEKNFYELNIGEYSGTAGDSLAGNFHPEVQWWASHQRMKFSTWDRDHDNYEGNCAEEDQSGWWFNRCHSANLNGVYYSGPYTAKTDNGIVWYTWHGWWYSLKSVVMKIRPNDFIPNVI
T3 sequence (Q9NZQ7 19-239 limits assumed): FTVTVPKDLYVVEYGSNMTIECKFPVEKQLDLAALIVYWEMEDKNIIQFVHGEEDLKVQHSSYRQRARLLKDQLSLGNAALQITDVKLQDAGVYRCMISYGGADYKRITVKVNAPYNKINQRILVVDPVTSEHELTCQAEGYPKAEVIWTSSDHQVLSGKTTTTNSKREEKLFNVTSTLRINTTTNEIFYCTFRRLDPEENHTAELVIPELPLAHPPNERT
T2 sequence (P97797 32-137 limits assumed): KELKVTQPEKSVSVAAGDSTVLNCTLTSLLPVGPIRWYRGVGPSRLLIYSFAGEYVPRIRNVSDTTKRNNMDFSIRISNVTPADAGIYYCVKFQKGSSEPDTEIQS
T1 sequence (P78324 32-137 limits assumed): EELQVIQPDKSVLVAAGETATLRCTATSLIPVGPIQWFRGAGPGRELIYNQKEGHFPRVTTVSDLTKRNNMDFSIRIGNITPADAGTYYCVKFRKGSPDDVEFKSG

For `Cc1cc(C)cc(NS(=O)(=O)c2ccc3[nH]cc(C(=O)NCCc4ccccc4)c(=O)c3c2)c1` [SMC18], the Kd (commonly the concentration at which binding is half-saturated) on human SIRPα (hSIRPα) was found to be 550 ± 100 nM. Also, the Kd at murine SIRPα (mSIRPα) came out at 2490 ± 1900 nM. Besides, on human PD-1/PD-L1, the IC50 was 19700 ± 7000 nM. Also, the “inhibitory effect on hLAG-3/hFGL-1 pathway” value on hLAG-3/hFGL-1 is reported as “no blocking effect; also recorded: did not impede”. Moreover, the “inhibitory effect on hTIM-3/hGal-9 pathway” value against hTIM-3/hGal-9 is on record as “no blocking effect; also recorded: did not impede”. In addition, the “toxicity towards B16-OVA cells (MTT)” value in the series with B16-OVA cells was “only mild toxicity”. Besides, the “levels of phosphorylated PD-1” value in the series on PD-1 is on record as “decreased”. In the series with MC38 tumor-bearing mice, the “body weight of tumor-bearing mice” value is listed as “without affecting” and the “growth of MC38 tumors” value is reported as “effectively delayed”.
